# In patent US20050153938A1, “Polyphosphonate derivatives for toothpaste compositions” (Universite D'Angers, priority 2002, published 2005):
# Columns and labels:
# [1] = Tests of efficiency of polyphosphonate compounds for preventing bonding of proteins; details: compared with diphosphonic esters, sulfonates, phosphates, carboxylates and diphosphates
# Protocol: One particular difficulty lies in identification of compounds with a particularly efficient behaviour for the required application.
# This TMADP compound has been synthesised in a single step using hydroxyethylidene biphosphonic acid (HEDP) and glycidyltrimethylammonium chloride. The reaction was done in DMSO previously conserved on a molecular sieve. After dissolution of HEDP (2 g; 14.5×10^−3 mol) at 50° C. in 30 ml of DMSO, the epoxyde (2.2 g; 14.5×10^−3 mol) is added and the temperature is increased to 110° C. for 24 hours. The DMSO is then evaporated at low pressure and the raw product is dissolved in a minimum amount of distilled water. The TMADP product is then chromatographed on a cation exchanger resin (DOWEX 50WX8-20/50 Mesh, H+form). The column is eluted with distilled water and the pure product is collected at a pH of between 3.0 and 3.5.
# [2] = Model of protection of a stainless steel plate against bonding of proteins
# Description: A sufficient coverage quantity of TMADP molecules on this model is […] per nm^2 of plaque surface area.
smiles,measurement,setting,value
"C[N+](C)(C)CCCCCC(P(=O)(O)O)P(=O)(O)O [6-trimethylammoniohexyl-1,1-bisphosphonic acid]",efficiency of the compound (result in words),[1],particularly conclusive results
"CC(OCC(O)C[N+](C)(C)C)(P(=O)(O)O)P(=O)(O)O.[Cl-] (stereo not shown) [TMADP, 2,2-diphosphono-5-hydroxy-3-oxa-6-hexyltrimethylammonium (TMADP) chloride]",contamination by proteins,"[2]; TMADP concentration 2.86×10^−4 mol.I-1, 10 minutes incubation of the plaque (stainless steel plate)",less than 10%
same,contamination by proteins,"[2]; TMADP concentration about 1.4×10^−4 mol.I-1, stainless steel plate",about 15%
same,efficiency of the compound (result in words),[1],particularly conclusive results
